Assay results: patent US8609661B2, “Pyrimido-pyrrolo-quinoxalinedione inhibitors of cystic fibrosis transmembrane conductance regulator protein and uses therefor” (The Regents of the University of California, priority 2009, dated 2013)

What was measured:
CFTR = CFTR (Homo sapiens, UniProt P13569); conditions: literature; depending on cell type and membrane potential; read-out: IC50 for CFTR chloride conductance block; cited from earlier work
human wildtype CFTR = biological target: T1, human wildtype CFTR (Homo sapiens, UniProt P13569); experiment: Fluorescence platereader assay of CFTR-mediated iodide influx (YFP quenching) in FRT cells; assay type: cell-based; conditions: FRT, Table 2, screening; for inhibition at 5 µM: read-out: % Inhibition at 5 μM; for inhibition at 25 µM: read-out: % Inhibition at 25 μM
T1 construct: expressed in transfected cells; host or cells: Fischer rat thyroid (FRT) cells
T1 sequence (P13569 whole entry): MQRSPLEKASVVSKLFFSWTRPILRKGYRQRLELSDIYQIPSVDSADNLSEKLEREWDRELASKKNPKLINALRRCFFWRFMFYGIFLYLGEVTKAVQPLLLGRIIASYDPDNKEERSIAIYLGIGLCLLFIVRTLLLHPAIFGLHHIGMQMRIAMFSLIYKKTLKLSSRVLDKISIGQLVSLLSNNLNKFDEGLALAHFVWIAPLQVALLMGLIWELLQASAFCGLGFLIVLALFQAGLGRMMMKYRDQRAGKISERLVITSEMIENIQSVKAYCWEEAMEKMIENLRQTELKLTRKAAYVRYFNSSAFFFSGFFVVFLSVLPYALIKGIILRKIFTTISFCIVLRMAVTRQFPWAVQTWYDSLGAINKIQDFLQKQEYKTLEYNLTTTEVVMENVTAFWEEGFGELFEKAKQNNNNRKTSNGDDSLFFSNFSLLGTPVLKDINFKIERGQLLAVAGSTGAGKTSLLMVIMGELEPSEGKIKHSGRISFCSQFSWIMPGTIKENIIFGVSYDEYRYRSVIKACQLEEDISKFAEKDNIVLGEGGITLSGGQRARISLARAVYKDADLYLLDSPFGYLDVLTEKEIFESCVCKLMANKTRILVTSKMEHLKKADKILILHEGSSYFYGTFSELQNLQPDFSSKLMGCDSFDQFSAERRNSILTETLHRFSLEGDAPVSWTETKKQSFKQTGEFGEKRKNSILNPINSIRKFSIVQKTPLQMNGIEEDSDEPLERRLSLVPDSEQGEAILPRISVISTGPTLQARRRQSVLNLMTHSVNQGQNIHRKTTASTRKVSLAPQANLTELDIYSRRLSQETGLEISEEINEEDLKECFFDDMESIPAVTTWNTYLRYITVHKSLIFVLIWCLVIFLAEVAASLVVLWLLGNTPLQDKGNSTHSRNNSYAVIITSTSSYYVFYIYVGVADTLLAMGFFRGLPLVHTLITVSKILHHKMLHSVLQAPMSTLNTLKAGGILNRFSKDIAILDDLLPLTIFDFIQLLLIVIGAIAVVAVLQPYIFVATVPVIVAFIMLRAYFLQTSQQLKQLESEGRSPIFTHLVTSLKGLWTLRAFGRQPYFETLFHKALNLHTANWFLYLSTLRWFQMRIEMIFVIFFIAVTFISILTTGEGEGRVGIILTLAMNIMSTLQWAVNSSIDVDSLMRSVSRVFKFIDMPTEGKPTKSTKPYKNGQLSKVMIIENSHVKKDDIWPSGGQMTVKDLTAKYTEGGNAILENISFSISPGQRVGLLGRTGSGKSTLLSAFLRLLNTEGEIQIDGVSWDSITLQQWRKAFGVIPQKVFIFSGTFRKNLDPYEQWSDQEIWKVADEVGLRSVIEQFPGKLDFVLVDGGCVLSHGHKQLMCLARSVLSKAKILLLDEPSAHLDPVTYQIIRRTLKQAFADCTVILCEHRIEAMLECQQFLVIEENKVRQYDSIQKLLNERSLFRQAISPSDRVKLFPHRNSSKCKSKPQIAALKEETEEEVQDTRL
In short: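 Fischer rat thyroid cells co-expressing human wildtype CFTR and the YFP-H148Q/1152L halide sensor were seeded at 20,000 cells per well in 96-well black-walled plates and assayed 48 h later at confluence. After PBS washes and a 15 min incubation, CFTR was maximally activated with an agonist mixture. Fluorescence was recorded for 2 s before and 10 s after adding 160 μL iodide-substituted PBS, and iodide influx rates came from non-linear regression.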

Chain of CFTR (P13569 whole entry, species assumed): as the sequence (P13569 whole entry) above

Compound	IC50 (CFTR) [µM]	inhibition at 5 µM (human wildtype CFTR) [%]	inhibition at 25 µM (human wildtype CFTR) [%]
O=C(CNc1ccc2ccccc2c1)N/N=C/c1cc(Br)c(O)c(Br)c1O [GlyH-101]	~5	–	–
Cc1ccccc1-c1c2c(=O)n(C)c(=O)n(C)c2c2n1-c1ccccc1NC2c1cccc(F)c1 (centres unmarked) [PPQ-229, 7,9-Dimethyl-11-(2-methylphenyl)-6-(3-fluorophenyl)-5,6-dihydro-pyrimido[4′,5′-3,4]pyrrolo[1,2-a]quinoxaline-8,10-(7H,9H)-dione]	–	57	90
Cn1c(=O)c2c(-c3ccccc3F)n3c(c2n(C)c1=O)C(c1cccc(F)c1)Nc1ccccc1-3 (centres unmarked) [PPQ-230, 7,9-Dimethyl-11-(2-fluorophenyl)-6-(3-fluorophenyl)-5,6-dihydro-pyrimido[4′,5′-3,4]pyrrolo[1,2-a]quinoxaline-8,10-(7H,9H)-dione]	–	51	87
CCOc1ccccc1C1Nc2ccccc2-n2c(-c3cccc(C)c3)c3c(=O)n(C)c(=O)n(C)c3c21 (centres unmarked) [PPQ-231, 7,9-Dimethyl-11-(3-methylphenyl)-6-(2-ethoxyphenyl)-5,6-dihydro-pyrimido[4′,5′-3,4]pyrrolo[1,2-a]quinoxaline-8,10-(7H,9H)-dione]	–	< 10	87
Cc1cccc(C2Nc3ccccc3-n3c(-c4ccccc4)c4c(=O)n(C)c(=O)n(C)c4c32)c1 (centres unmarked) [PPQ-232, 7,9-Dimethyl-11-phenyl-6-(3-methylphenyl)-5,6-dihydro-pyrimido[4′,5′-3,4]pyrrolo[1,2-a]quinoxaline-8,10-(7H,9H)-dione]	–	67	67
Cn1c(=O)c2c(-c3ccccc3F)n3c(c2n(C)c1=O)C(c1ccc(F)cc1)Nc1ccccc1-3 (centres unmarked) [PPQ-233, 7,9-Dimethyl-11-(2-fluorophenyl)-6-(4-fluorophenyl)-5,6-dihydro-pyrimido[4′,5′-3,4]pyrrolo[1,2-a]quinoxaline-8,10-(7H,9H)-dione]	–	28	82
Cc1ccccc1-c1c2c(=O)n(C)c(=O)n(C)c2c2n1-c1ccccc1NC2c1ccccc1F (centres unmarked) [PPQ-234, 7,9-Dimethyl-11-(2-methylphenyl)-6-(2-fluorophenyl)-5,6-dihydro-pyrimido[4′,5′-3,4]pyrrolo[1,2-a]quinoxaline-8,10-(7H,9H)-dione]	–	53	81
Cc1cc2c(cc1C)-n1c(-c3ccccc3)c3c(=O)n(C)c(=O)n(C)c3c1C(c1ccc(O)cc1O)N2 (centres unmarked) [PPQ-235, 2,3,7,9-Tetramethyl-11-phenyl-6-(2,4-dihydroxyphenyl)-5,6-dihydro-pyrimido[4′,5′-3,4]pyrrolo[1,2-a]quinoxaline-8,10-(7H,9H)-dione]	–	12	80
Cc1cc2c(cc1C)-n1c(-c3ccccc3)c3c(=O)n(C)c(=O)n(C)c3c1C(c1cccc(O)c1O)N2 (centres unmarked) [PPQ-236, 2,3,7,9-Tetramethyl-11-phenyl-6-(2,3-dihydroxyphenyl)-5,6-dihydro-pyrimido[4′,5′-3,4]pyrrolo[1,2-a]quinoxaline-8,10-(7H,9H)-dione]	–	14	80
Cc1ccc(C2Nc3ccccc3-n3c(-c4ccccc4F)c4c(=O)n(C)c(=O)n(C)c4c32)cc1 (centres unmarked) [PPQ-237, 7,9-Dimethyl-11-(2-fluorophenyl)-6-(4-methylphenyl)-5,6-dihydro-pyrimido[4′,5′-3,4]pyrrolo[1,2-a]quinoxaline-8,10-(7H,9H)-dione]	–	20	58
Cc1cccc(-c2c3c(=O)n(C)c(=O)n(C)c3c3n2-c2ccccc2NC3c2ccc(F)cc2)c1 (centres unmarked) [PPQ-238, 7,9-Dimethyl-11-(3-methylphenyl)-6-(4-fluorophenyl)-5,6-dihydro-pyrimido[4′,5′-3,4]pyrrolo[1,2-a]quinoxaline-8,10-(7H,9H)-dione]	–	22	57
Cn1c(=O)c2c(-c3ccccc3)n3c(c2n(C)c1=O)C(c1cccc(F)c1)Nc1ccccc1-3 (centres unmarked) [PPQ-239, 7,9-Dimethyl-11-phenyl-6-(3-fluorophenyl)-5,6-dihydro-pyrimido[4′,5′-3,4]pyrrolo[1,2-a]quinoxaline-8,10-(7H,9H)-dione]	–	45	76
Cn1c(=O)c2c(-c3ccccc3)n3c(c2n(C)c1=O)C(c1cccc(O)c1)Nc1ccccc1-3 (centres unmarked) [PPQ-240, 7,9-Dimethyl-11-phenyl-6-(3-hydroxyphenyl)-5,6-dihydro-pyrimido[4′,5′-3,4]pyrrolo[1,2-a]quinoxaline-8,10-(7H,9H)-dione]	–	30	74
COc1cc(C2Nc3ccccc3-n3c(-c4cccc(C)c4)c4c(=O)n(C)c(=O)n(C)c4c32)ccc1O (centres unmarked) [PPQ-241, 7,9-Dimethyl-11-(3-methylphenyl)-6-(3-methoxy-4-hydroxyphenyl)-5,6-dihydro-pyrimido[4′,5′-3,4]pyrrolo[1,2-a]quinoxaline-8,10-(7H,9H)-dione]	–	16	74
Cc1ccccc1-c1c2c(=O)n(C)c(=O)n(C)c2c2n1-c1ccccc1NC2c1cccc(O)c1 (centres unmarked) [PPQ-242, 7,9-Dimethyl-11-(2-methylphenyl)-6-(3-hydroxyphenyl)-5,6-dihydro-pyrimido[4′,5′-3,4]pyrrolo[1,2-a]quinoxaline-8,10-(7H,9H)-dione]	–	15	74
Cc1cccc(-c2c3c(=O)n(C)c(=O)n(C)c3c3n2-c2ccccc2NC3c2ccc(O)c(O)c2)c1 (centres unmarked) [PPQ-243, 7,9-Dimethyl-11-(3-methylphenyl)-6-(3,4-dihydroxyphenyl)-5,6-dihydro-pyrimido[4′,5′-3,4]pyrrolo[1,2-a]quinoxaline-8,10-(7H,9H)-dione]	–	12	72
Cn1c(=O)c2c(-c3ccccc3F)n3c(c2n(C)c1=O)C(c1ccc(F)cc1F)Nc1ccccc1-3 (centres unmarked) [PPQ-244, 7,9-Dimethyl-11-(2-fluorophenyl)-6-(2,4-difluorophenyl)-5,6-dihydro-pyrimido[4′,5′-3,4]pyrrolo[1,2-a]quinoxaline-8,10-(7H,9H)-dione]	–	32	56
COc1cc(O)ccc1C1Nc2ccccc2-n2c(-c3cccc(C)c3)c3c(=O)n(C)c(=O)n(C)c3c21 (centres unmarked) [PPQ-245, 7,9-Dimethyl-11-(3-methylphenyl)-6-(2-methoxy-4-hydroxyphenyl)-5,6-dihydro-pyrimido[4′,5′-3,4]pyrrolo[1,2-a]quinoxaline-8,10-(7H,9H)-dione]	–	20	55
COc1ccc(O)c(C2Nc3ccccc3-n3c(-c4cccc(C)c4)c4c(=O)n(C)c(=O)n(C)c4c32)c1 (centres unmarked) [PPQ-246, 7,9-Dimethyl-11-(3-methylphenyl)-6-(2-hydroxy-5-methoxylphenyl)-5,6-dihydro-pyrimido[4′,5′-3,4]pyrrolo[1,2-a]quinoxaline-8,10-(7H,9H)-dione]	–	< 10	50
Cc1cc2c(cc1C)-n1c(-c3ccccc3)c3c(=O)n(C)c(=O)n(C)c3c1C(c1cc(O)ccc1O)N2 (centres unmarked) [PPQ-247, 2,3,7,9-Tetramethyl-11-phenyl-6-(2,5-dihydroxyphenyl)-5,6-dihydro-pyrimido[4′,5′-3,4]pyrrolo[1,2-a]quinoxaline-8,10-(7H,9H)-dione]	–	13	58
COc1cc(C2Nc3ccccc3-n3c(-c4ccccc4)c4c(=O)n(C)c(=O)n(C)c4c32)ccc1O (centres unmarked) [PPQ-248, 7,9-Dimethyl-11-phenyl-6-(3-methoxy-4-hydroxyphenyl)-5,6-dihydro-pyrimido[4′,5′-3,4]pyrrolo[1,2-a]quinoxaline-8,10-(7H,9H)-dione]	–	5	64
Cn1c(=O)c2c(-c3ccccc3)n3c(c2n(C)c1=O)C(c1ccc(F)cc1)Nc1ccccc1-3 (centres unmarked) [PPQ-249, 7,9-Dimethyl-11-phenyl-6-(4-fluorophenyl)-5,6-dihydro-pyrimido[4′,5′-3,4]pyrrolo[1,2-a]quinoxaline-8,10-(7H,9H)-dione]	–	21	64
Cc1cccc(-c2c3c(=O)n(C)c(=O)n(C)c3c3n2-c2ccccc2NC3c2ccccc2)c1 (centres unmarked) [PPQ-250, 7,9-Dimethyl-11-(3-methylphenyl)-6-phenyl-5,6-dihydro-pyrimido[4′,5′-3,4]pyrrolo[1,2-a]quinoxaline-8,10-(7H,9H)-dione]	–	49	64
COc1cc(C2Nc3ccccc3-n3c(-c4ccccc4F)c4c(=O)n(C)c(=O)n(C)c4c32)ccc1O (centres unmarked) [PPQ-251, 7,9-Dimethyl-11-(2-fluorophenyl)-6-(3-methoxy-4-hydroxyphenyl)-5,6-dihydro-pyrimido[4′,5′-3,4]pyrrolo[1,2-a]quinoxaline-8,10-(7H,9H )-dione]	–	13	62
COc1ccc(-c2c3c(=O)n(C)c(=O)n(C)c3c3n2-c2ccccc2NC3c2cccc(F)c2F)cc1 (centres unmarked) [PPQ-252, 7,9-Dimethyl-11-(4-methoxyphenyl)-6-(2,3-difluorophenyl)-5,6-dihydro-pyrimido[4′,5′-3,4]pyrrolo[1,2-a]quinoxaline-8,10-(7H,9H)-dione]	–	< 10	78
Cn1c(=O)c2c(-c3ccccc3)n3c(c2n(C)c1=O)C(c1ccc2c(c1)OCO2)Nc1ccccc1-3 (centres unmarked) [PPQ-301, 7,9-Dimethyl-11-phenyl-6-(1,3-benzodioxol-5-yl)-5,6-dihydro-pyrimido[4′,5′-3,4]pyrrolo[1,2-a]quinoxaline-8,10-(7H,9H)-dione]	–	28	58
Cc1cccc(-c2c3c(=O)n(C)c(=O)n(C)c3c3n2-c2ccccc2NC3c2ccc3c(c2)OCO3)c1 (centres unmarked) [PPQ-302, 7,9-Dimethyl-11-(3-methylphenyl)-6-(1,3-benzodioxol-5-yl)-5,6-dihydro-pyrimido[4′,5′-3,4]pyrrolo[1,2-a]quinoxaline-8,10-(7H,9H)-dione]	–	26	63
